Assay results taken from patent publication US8063065B2, “Azaindazole compounds as CCR1 receptor antagonists” (Boehringer Ingelheim International GmbH, priority 2008, dated 2011).

Molecular target: T1, CCR1 (Homo sapiens, UniProt P32246)
T1 sequence (P32246 1-355): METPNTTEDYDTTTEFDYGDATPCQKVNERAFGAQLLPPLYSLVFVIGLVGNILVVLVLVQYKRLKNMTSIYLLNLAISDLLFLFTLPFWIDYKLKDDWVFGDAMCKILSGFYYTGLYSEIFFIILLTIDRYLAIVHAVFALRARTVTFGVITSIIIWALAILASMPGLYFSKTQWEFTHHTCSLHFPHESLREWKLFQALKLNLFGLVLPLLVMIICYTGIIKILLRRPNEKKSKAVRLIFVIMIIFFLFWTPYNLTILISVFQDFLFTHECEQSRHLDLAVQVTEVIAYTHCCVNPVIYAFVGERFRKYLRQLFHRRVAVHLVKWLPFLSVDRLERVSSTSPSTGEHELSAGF
Test: Method B: calcium flux in CCR1 transfected cells (Calcium 4 dye, […] FDSS6000), block of the CCR1/MIP-1α interaction
Assay type: cell-based
Conditions: Method B: Calcium 4 dye, MIP-1alpha at EC80
Protocol: Compounds are assessed for the ability to block the interaction of CCR1 and MIP-1α in a functional cellular assay measuring calcium flux in CCR1 transfected cells.
Method B: Non-adherent cells purchased from Chemicon Corporation (HTS005C), stably expressing recombinant CCR1 and G-alpha-16 are grown in RPMI 1640 medium (Mediatech 10-080-CM) supplemented with 10% FBS, 0.4 mg/mL Geneticin and penicillin/streptomycin. On the day of the assay, the cells are loaded with Calcium 4 dye (Molecular Devices R7448) with Probenecid (Invitrogen P346400) at 8E5 cells/mL for 1 hour at room temperature. After 1 hour, they are seeded in a 384-well tissue culture-treated plate at a density of 20,000 cells/well. Appropriately diluted test compound is added to the well to achieve a top concentration of 3,000 nM (diluted 4-fold with 10 doses total). The final concentration of DMSO is 1%. The buffer is HBSS (Invitrogen 14025) with 20 mM HEPES at pH 7.4. The cells incubate 30 minutes at 37 C and then 30 minutes at room temperature. The plates are transferred to the […] FDSS6000 where MIP-1alpha in 1% BSA is added at the EC80 final concentration. All plates must be read within 4 hours of the start of dye-loading. Wells+/−MIP-1alpha containing diluted DMSO instead of compound serve as the controls. Data are analyzed using Activity Base software.

SMILES | IC50
O=C(N[C@@H](CO)c1ccnc(Br)c1)c1cncc2c1cnn2-c1ccc(F)cc1 [1-(4-Fluorophenyl)-1H-pyrazolo[3,4-c]pyridine-4-carboxylic acid [(R)-1-(2-bromo-pyridin-4-yl)-2-hydroxy-ethyl]-amide] | 2 nM
CCC(NC(=O)c1cncc2c1cnn2-c1ccc(F)cc1)c1nc(C(N)=O)co1 (centres unmarked) [1-(4-Fluorophenyl)-1H-pyrazolo[3,4-c]pyridine-4-carboxylic acid [1-(4-carbamoyl-oxazol-2-yl)-propyl]-amide] | 36 nM
CC[C@H](NC(=O)c1cncc2c1cnn2-c1ccc(F)cc1)c1ccc(OC)c(S(C)(=O)=O)c1 [1-(4-Fluorophenyl)-1H-pyrazolo[3,4-c]pyridine-4-carboxylic acid [(S)-1-(3-methanesulfonyl-4-methoxy-phenyl)-propyl]-amide] | 6 nM
CCC[C@@H](NC(=O)c1cncc2c1cnn2-c1ccc(F)cc1)c1ccc(OC)c(Br)c1 [1-(4-Fluorophenyl)-1H-pyrazolo[3,4-c]pyridine-4-carboxylic acid [(R)-1-(3-bromo-4-methoxy-phenyl)-butyl]-amide] | 0.3 nM
CN(CC(N)=O)c1cc(CNC(=O)c2cncc3c2cnn3-c2ccc(F)cc2)cc(S(C)(=O)=O)n1 [1-(4-Fluorophenyl)-1H-pyrazolo[3,4-c]pyridine-4-carboxylic acid [2-(carbamoylmethyl-methyl-amino)-6-methanesulfonyl-pyridin-4-ylmethyl]-amide] | 3 nM
CCC(NC(=O)c1cncc2c1cnn2-c1ccc(F)cc1)c1ccc(S(C)(=O)=O)[n+]([O-])c1 (centres unmarked) [1-(4-Fluorophenyl)-1H-pyrazolo[3,4-c]pyridine-4-carboxylic acid [1-(6-methanesulfonyl-1-oxy-pyridin-3-yl)-propyl]-amide] | 9 nM
C[C@H](NC(=O)c1cncc2c1cnn2-c1ccc(F)cc1)c1cc(N(C)C)nc(S(C)(=O)=O)c1 [1-(4-Fluorophenyl)-1H-pyrazolo[3,4-c]pyridine-4-carboxylic acid [(S)-1-(2-dimethylamino-6-methanesulfonyl-pyridin-4-yl)-ethyl]-amide] | 0.2 nM
CC[C@H](NC(=O)c1cncc2c1cnn2-c1ccc(F)cc1)c1csc(S(C)(=O)=O)c1 [1-(4-Fluorophenyl)-1H-pyrazolo[3,4-c]pyridine-4-carboxylic acid [(S)-1-(5-methanesulfonyl-thiophen-3-yl)-propyl]-amide] | 0.3 nM
CCC(CC)(NC(=O)c1cncc2c1cnn2-c1ccc(F)cc1)c1ccnc(Br)c1 [1-(4-Fluorophenyl)-1H-pyrazolo[3,4-c]pyridine-4-carboxylic acid [1-(2-bromo-pyridin-4-yl)-1-ethyl-propyl]-amide] | 29 nM
CCS(=O)(=O)c1cncc([C@H](C)NC(=O)c2cncc3c2cnn3-c2ccc(F)cc2)c1 [1-(4-Fluorophenyl)-1H-pyrazolo[3,4-c]pyridine-4-carboxylic acid [(S)-1-(5-ethanesulfonyl-pyridin-3-yl)-ethyl]-amide] | 4 nM
CCC(CC)(NC(=O)c1cncc2c1cnn2-c1ccc(F)cc1)c1cnc(S(C)(=O)=O)s1 [1-(4-Fluorophenyl)-1H-pyrazolo[3,4-c]pyridine-4-carboxylic acid [1-ethyl-1-(2-methanesulfonyl-thiazol-5-yl)-propyl]-amide] | 28 nM
CC[C@H](NC(=O)c1cncc2c1cnn2-c1ccc(F)cc1)c1ccnc(C)c1 [1-(4-Fluorophenyl)-1H-pyrazolo[3,4-c]pyridine-4-carboxylic acid [(S)-1-(2-methyl-pyridin-4-yl)-propyl]-amide] | 0.9 nM
CC[C@H](NC(=O)c1cncc2c1cnn2-c1ccc(F)cc1)c1cn[nH]c1 [1-(4-Fluorophenyl)-1H-pyrazolo[3,4-c]pyridine-4-carboxylic acid [(S)-1-(1H-pyrazol-4-yl)-propyl]-amide] | 36 nM
CC[C@H](NC(=O)c1cncc2c1cnn2-c1ccc(F)cc1)c1cccc(S(C)(=O)=O)c1 [1-(4-Fluorophenyl)-1H-pyrazolo[3,4-c]pyridine-4-carboxylic acid [(S)-1-(3-methanesulfonyl-phenyl)-propyl]-amide] | 0.3 nM
CC[C@H](NC(=O)c1cncc2c1cnn2-c1ccc(F)cc1)c1ccn(S(C)(=O)=O)n1 [1-(4-Fluorophenyl)-1H-pyrazolo[3,4-c]pyridine-4-carboxylic acid [(S)-1-(1-methanesulfonyl-1H-pyrazol-3-yl)-propyl]-amide] | 3 nM
CC(C)(O)CNS(=O)(=O)c1ccc(CNC(=O)c2cncc3c2cnn3-c2ccc(F)cc2)cc1 [1-(4-Fluorophenyl)-1H-pyrazolo[3,4-c]pyridine-4-carboxylic acid 4-(2-hydroxy-2-methyl-propylsulfamoyl)-benzylamide] | 1 nM
O=C(NCc1cc(Br)cs1)c1cncc2c1cnn2-c1ccc(F)cc1 [1-(4-Fluorophenyl)-1H-pyrazolo[3,4-c]pyridine-4-carboxylic acid (4-bromo-thiophen-2-ylmethyl)-amide] | 7 nM
CS(=O)(=O)c1ccc(CNC(=O)c2cncc3c2cnn3-c2ccc(F)cc2)s1 [1-(4-Fluorophenyl)-1H-pyrazolo[3,4-c]pyridine-4-carboxylic acid (5-methanesulfonyl-thiophen-2-ylmethyl)-amide] | 5 nM
CCC(C)(NC(=O)c1cncc2c1cnn2-c1ccc(F)cc1)c1ccnc(S(C)(=O)=O)c1 (centres unmarked) [1-(4-Fluorophenyl)-1H-pyrazolo[3,4-c]pyridine-4-carboxylic acid [1-(2-methanesulfonyl-pyridin-4-yl)-1-methyl-propyl]-amide] | 6 nM

Results, then the compound that gave them:

IC50 | SMILES
0.4 nM | CC[C@H](NC(=O)c1cncc2c1cnn2-c1ccc(F)cc1)c1cc(NCC(N)=O)nc(S(C)(=O)=O)c1 [1-(4-Fluorophenyl)-1H-pyrazolo[3,4-c]pyridine-4-carboxylic acid {(S)-1-[2-(carbamoylmethyl-amino)-6-methanesulfonyl-pyridin-4-yl]-propyl}-amide]
16 nM | CC[C@@H](NC(=O)c1cncc2c1cnn2-c1ccc(F)cc1)c1cc(S(C)(=O)=O)cn1S(=O)(=O)c1ccc(C)cc1 [1-(4-Fluorophenyl)-1H-pyrazolo[3,4-c]pyridine-4-carboxylic acid {(R)-1-[4-methanesulfonyl-1-(toluene-4-sulfonyl)-1H-pyrrol-2-yl]-propyl}-amide]
6 nM | CCS(=O)(=O)c1ccc([C@H](C)NC(=O)c2cncc3c2cnn3-c2ccc(F)cc2)cn1 [1-(4-Fluorophenyl)-1H-pyrazolo[3,4-c]pyridine-4-carboxylic acid [(S)-1-(6-ethanesulfonyl-pyridin-3-yl)-ethyl]-amide]
18 nM | CCC(NC(=O)c1cncc2c1cnn2-c1ccc(F)cc1)c1nc(C(=O)NCC#N)c(C)o1 (centres unmarked) [1-(4-Fluorophenyl)-1H-pyrazolo[3,4-c]pyridine-4-carboxylic acid {1-[4-(cyanomethyl-carbamoyl)-5-methyl-oxazol-2-yl]-propyl}-amide]
0.4 nM | CCC[C@H](NC(=O)c1cncc2c1cnn2-c1ccc(F)cc1)c1ccc(S(C)(=O)=O)nc1 [1-(4-Fluorophenyl)-1H-pyrazolo[3,4-c]pyridine-4-carboxylic acid [(S)-1-(6-methanesulfonyl-pyridin-3-yl)-butyl]-amide]
37 nM | COC(=O)CCS(=O)(=O)c1cc([C@H](C)NC(=O)c2cncc3c2cnn3-c2ccc(F)cc2)ccn1 [3-[4-((S)-1-{[1-(4-Fluorophenyl)-1H-pyrazolo[3,4-c]pyridine-4-carbonyl]-amino}-ethyl)-pyridine-2-sulfonyl]-propionic acid methyl ester]
0.2 nM | CC[C@H](NC(=O)c1cncc2c1cnn2-c1ccc(F)cc1)c1ccc(S(=O)(=O)NC2CC2)nc1 [1-(4-Fluorophenyl)-1H-pyrazolo[3,4-c]pyridine-4-carboxylic acid [(S)-1-(6-cyclopropylsulfamoyl-pyridin-3-yl)-propyl]-amide]
26 nM | CCC(NC(=O)c1cncc2c1cnn2-c1ccc(F)cc1)C1CCCN(C(=O)OC(C)(C)C)C1 (centres unmarked) [3-(1-{[1-(4-Fluorophenyl)-1H-pyrazolo[3,4-c]pyridine-4-carbonyl]-amino}-propyl)-piperidine-1-carboxylic acid tert-butyl ester]
7 nM | CCC(NC(=O)c1cncc2c1cnn2-c1ccc(F)cc1)c1cnc(N(C)S(C)(=O)=O)nc1 (centres unmarked) [1-(4-Fluorophenyl)-1H-pyrazolo[3,4-c]pyridine-4-carboxylic acid {1-[2-(methanesulfonyl-methyl-amino)-pyrimidin-5-yl]-propyl}-amide]
3 nM | CC[C@H](NC(=O)c1nccc2c1cnn2-c1ccc(F)cc1)c1ccnc(S(C)(=O)=O)c1 [1-(4-Fluorophenyl)-1H-pyrazolo[4,3-c]pyridine-4-carboxylic acid [(S)-1-(2-methanesulfonyl-pyridin-4-yl)-propyl]-amide]
